# Patent US9745345B2, “Anti-tumor polypeptides and method for preparing anti-tumor drugs comprisng the same” (priority 2013, dated 2017)
# Square brackets hold non-standard residues; d marks the D form. Ends that are not written are not given here. pS = N[C@@H](COP(=O)(O)O)C(=O)O; Ahx = NCCCCCC(=O)O
# Key:
# [1] = system: SGC7901 gastric cancer cell; experiment: Fluorescence of FITC-modified cell-penetrating peptides after entry into SGC7901 cells; assay type: cell-based; conditions: 20 μM, 3 hrs
# Text: To enable JWA functional polypeptides to effectively penetrate into tumor cells, four typical CPPs: R9, TAT, pep-1, 2K (see Table 3), and a blank control having only JWA-1 were selected, the cell-penetrating peptide (CPP) with the highest cell-penetrating effect, its optimal action concentration and optimal action time were selected from the cell model.
# To facilitate the use of fluorescence microscopy to directly observe whether polypeptides have the ability to enter cells, the N-terminuses of the aforementioned sequences and JWA-1 were modified with fluorescein isothiocyanate (FITC) and the C-terminuses thereof were amidated.
# [2] = system: human melanoma A375 cells; experiment: Human melanoma A375 subcutaneous xenograft in NOD/SCID mice, intraperitoneal injection of polypeptides; assay type: in vivo; conditions: Example 5; 50 mg/kg intraperitoneal, alternate days, 5 times
# Text: The polypeptide designed and synthesized in this example was JWA-6+RGD whose sequence was SEQ ID NO: 7, i.e. 6-aminocaproic acid-FPGSDRF-GGGG-RGD, wherein amino acid S was phosphorylated. In addition, the N-terminus of the polypeptide sequence was acetylated and the C-terminus thereof was amidated during synthesis to prevent rapid degradation of the polypeptide. In this example, non-obese diabetic/severe combined immunodeficiency (NOD/SCID) mice were chosen for tumor-bearing model and the method for dorsal subcutaneous tumor bearing by inoculation of human melanoma A375 cells is the same as Example 2. The mice were randomly divided into four treatment groups after the tumors grew to a volume of about 100 mm^3. […]
# Then, 50 mg/kg polypeptide JWA-6, 10 mg/kg polypeptide JWA-6+RGD, 50 mg/kg polypeptide JWA-6+RGD, and 50 mg/kg non-pep (the polypeptide sequence used was the same as Example 3) were injected intraperitoneally. The various groups were administered with injection on alternate days for 5 times consecutively; and the body weight of the mice and their tumor diameters were measured at each administration. After completion of the experiment the mice were sacrificed after anesthesia, tumors were separated from the bodies and the tumor weights measured.
# Thereafter, the tumor bearing mice were obtained using the foregoing method of this example and divided into seven injection groups which were intraperitoneally injected with polypeptides JWA-6+RGD, JWA-6+RGD0, JWA-6+RGD1, JWA-6+RGD3, JWA-6+RGD7, JWA-6+RGD10, and non-pep (the polypeptide sequence used was the same as Example 3) at a dose of 50 mg/kg. The various groups were administered by intraperitoneal injection on alternate days for 5 times consecutively; and the body weight of the mice and their tumor diameters were measured at each administration. The day of first administration was taken as the first day, and the experiment was stopped on the twelfth day when the mice were sacrificed after anesthesia, and tumors were separated from the bodies and the tumor weights were measured.
# [3] = system: Human Melanoma A375 Cells; experiment: Cell proliferation with CCK8 reagent, A375 cells; assay type: cell-based; conditions: 0-50 μM, 24, 48 and 72 hrs, in comparison with the control group
# Experimental: (§1) B16F10 or A375 cells in the logarithmic phase of growth were trypsinized and seeded in a 96-well plate (5×10^3 cells/well), and were treated with different doses (0 μM, 5 μM, 10 μM, 25 μM, 50 μM) of polypeptide JWA-1, JWA-5, JWA-6 or non-pep (the polypeptide sequence used was the same as Example 3) for 24 hrs, 48 hrs and 72 hrs, respectively. The original culture medium was removed from the 96 wells at the indicated time and cell proliferation was determined with CCK8 reagent according to the manufacturer's instructions. Four duplicate samples were taken from each group and the experiments were repeated for three times.
# [4] = system: Mouse Melanoma B16F10 Cells; experiment: Cell proliferation with CCK8 reagent, B16F10 cells; assay type: cell-based; conditions: 0-50 μM, 24, 48 and 72 hrs, in comparison with the control group
# Experimental: as §1
# [5] = system: A375 cells; experiment: Cytoactivity of A375 cells treated with ATO alone or with polypeptides in combination with ATO; assay type: cell-based, human
# Experimental: Firstly, the dose and time for treatment of A375 cells with ATO were determined. A375 cells in the logarithmic phase of growth were conventionally digested and seeded in a 96-well plate (5×10^3 cells/well), and different doses (5 μM, 10 μM, 25 μM, 50 μM) of ATO were used to treat the cells for 24 hrs and 48 hrs after cell attachment. It was discovered that the activity of A375 cells was reduced by 40% after 24 hrs of treatment with 5 μM ATO (as shown in FIG. 24), and that the cell growth inhibition rate was approximately 100% after 48 hrs of treatment with different doses of ATO (as shown in FIG. 25). Therefore, ATO with a concentration smaller than or equal to 5 μM was chosen to treat the cells for 24 hrs for subsequent reference of dose and time for combined medication.
# [6] = system: A375 cells; experiment: Western Blot of apoptosis-related molecules (PARP-1, caspase-3) in A375 cells; assay type: cell-based, human; conditions: JWA-6 in combination with ATO, 24 hrs; compared to untreated group and ATO alone
# Experimental: (§2) The combined effect of ATO and polypeptide JWA-6 on the self-destruction of protein expression was also determined A375 cells in the logarithmic phase of growth were conventionally digested and 5×10^5 cells were inoculated evenly in a 60 mm cell culture dish, and different doses of ATO were used to individually treat the cells for 24 hrs, or different doses of ATO in combination with different doses of polypeptide JWA-6 were used to treat the cells for 24 hrs, after which 0.18 mL of RIPA lysis buffer containing 0.5% phenylmethanesulfonyl fluoride (PMSF) was added to extract protein. After centrifugation at 12000×g for 15 minutes, the supernatant was taken, protein concentration was examined. Based on the molecular weight measured, a polyacrylamide gel having a suitable concentration was chosen for protein electrophoresis where each well was added with […] of protein, and the conditions for electrolysis were 60 V, 30 minutes and 90 V, 1-1.5 hrs. After completion of the electrolysis, semi-dry transfer was performed to transfer the protein from the gel onto a polyvinylidene difluoride (PVDF) membrane. After completion of the transfer, the membrane was blocked with 5% skim milk at room temperature for 1-2 hrs. Then, the membrane was washed 3 times (each lasting 5 minutes) using Tris-buffered Saline with Tween (TBST) containing 0.1% Tween-20, and incubation of the corresponding antibody was performed overnight at 4° C. On the next day, membrane was washed 3 times (each lasting 5 minutes) using Tris-buffered Saline with Tween (TBST) containing 0.1% Tween-20; incubation of secondary antibody was performed at room temperature for 1-2 hrs; and again membrane was washed 8 times (each lasting 5 minutes) using Tris-buffered Saline with Tween (TBST) containing 0.1% Tween-20. The membrane was added with enhanced chemiluminescence (ECL) liquid and exposed.
# Polypeptide CPP-JWA-6 at a dose of 20 μM, 50 μM was applied individually and applied in combination with ATO (5 μM) on A375 cells (as shown in FIG. 40) and SGC7901 cells (as shown in FIG. 41) for 24 hrs before protein was extracted, and the Western Blot method of Example 7 was used to examine the changes in apoptosis-related molecules.
# [7] = system: B16 cells; experiment: Western Blot of PARP-1 in B16 cells; assay type: cell-based; conditions: JWA-6 in combination with ATO, 24 hrs
# [8] = system: SGC7901 cells; experiment: Annexin V-PE/7-AAD flow cytometry of apoptosis in SGC7901 cells; assay type: cell-based
# Text: Six groups with different treatment methods directed against SGC7901 cells were designed: blank control group; transfection Flag-control group; transfection Hag-JWA group; transfection Flag-JWA and ATO combined treatment group; ATO treatment group; and polypeptide CPP-1 and ATO combined treatment group. After 24 hrs of treatment for each group, Annexin V-PE/PI flow cytometry was used to examine apoptosis and Western Blot was used to detect the level of PARP-1. […]
# In normal cells, phosphatidyl serine (PS) are distributed on the inside of cell membrane lipid bilayer, and at the early stage of apoptosis the phosphatidyl serine (PS) in cell membranes is turned over from the inside of lipid membrane to the outside thereof. […] Annexin V was labeled with fluorescein phycoerythrin (PE); fluorescence microscopy or flow cytometry could be employed to examine apoptosis with the labeled Annexin V used as a fluorescent probe. […] Cells were divided into three group by the fluorescence intensity of 7-AAD labeling DNA: strong fluorescence of 7-AAD indicates dead cells, weak fluorescence of 7-AAD indicates apoptotic cells, and undetectable fluorescence of 7-AAD indicates normal active cells. […]
# [9] = system: SGC7901 cells; experiment: Western Blot of PARP-1 in SGC7901 cells; assay type: cell-based; conditions: CPP-1 and ATO combined action group versus other groups
# Experimental: as §2, with “exposed. […]” for “exposed.”
substance,measurement,setting,value
"6-aminocaproic acid-RRRRRRRRR ([Ahx]RRRRRRRRR) [R9, cell-penetrating peptide (CPP)]","fluorescence after entry into cells, differences between R9 group and other groups",[1],the most significant
6-aminocaproic acid-FPGSDRF ([Ahx]FPG[pS]DRF) [JWA-6],tumor inhibition effect,[2],a certain degree of tumor inhibition effect
same,inhibition effect on A375 cells,[3],no inhibition effect
same,inhibition effect on B16F10 cells,[4],no inhibition effect
same,"cytoactivity of A375 cells, combined use with ATO","[5]; polypeptide 50-500 μM in combination with ATO 0.5-5 μM, 24 and 48 hrs",obvious toxicity
same,cleaved PARP-1,[6],significantly increased
same,cleaved caspase-3,[6],significantly increased
same,changes of PARP-1,[7],changes of PARP-1 were also seen
6-aminocaproic acid-(R)9-FFPGSDRFA ([Ahx]RRRRRRRRRFFPG[pS]DRFA) [CPP-1],apoptosis rate,"[8]; 20 μM polypeptide 3 hrs, then 5 μM ATO 24 hrs (combined action group)",55.76%
same,expression of PARP-1 spliceosome,[9],higher than those of other groups
"arsenic trioxide [ATO, reference compound]",activity of A375 cells reduced by,"[5]; 5 μM ATO alone, 24 hrs",40%
same,cell growth inhibition rate,"[5]; ATO alone, different doses (5, 10, 25, 50 μM), 48 hrs",approximately 100%
same,apoptosis rate,"[8]; pure ATO treatment group, 24 hrs",24.69%
